Assay results reported in ChEMBL document CHEMBL1201862, “PubChem BioAssay data set” (2004).
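Values below derive from 48-hour exposures of cells grown in 96-well plates, with endpoints linearly interpolated between the two concentrations bracketing the appropriate inhibition level. GI50 marks 50% less growth.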 Active and inactive are the calls of the source. No stated cut-off is given here; in the data, active = GI50 up to about 1.1 µM and inactive = higher.

How the values were obtained:
Experiment in all cases: NCI tumour cell line growth inhibition, 48 h
SNB-19 = test system: SNB-19
CCRF-CEM = test system: CCRF-CEM
UACC-257 = test system: UACC-257
HCT-116 = test system: HCT-116
OVCAR-5 = test system: OVCAR-5
SF-268 = test system: SF-268
HT-29 = test system: HT-29
SF-295 = test system: SF-295
HCT-15 = test system: HCT-15
SK-MEL-2 = test system: SK-MEL-2
UO-31 = test system: UO-31
A549 = test system: A549
U-251 = test system: U-251
RPMI-8226 = test system: RPMI-8226
SK-MEL-28 = test system: SK-MEL-28
KM12 = test system: KM12
EKVX = test system: EKVX
NCI-H23 = test system: NCI-H23
HCC 2998 = test system: HCC 2998
SN12C = test system: SN12C

Row | Structure (SMILES) | GI50 (SNB-19) | GI50 (CCRF-CEM) | GI50 (UACC-257) | GI50 (HCT-116) | GI50 (OVCAR-5) | GI50 (SF-268) | GI50 (HT-29) | GI50 (SF-295) | GI50 (HCT-15) | GI50 (SK-MEL-2) | GI50 (UO-31) | GI50 (A549) | GI50 (U-251) | GI50 (RPMI-8226) | GI50 (SK-MEL-28) | GI50 (KM12) | GI50 (EKVX) | GI50 (NCI-H23) | GI50 (HCC 2998) | GI50 (SN12C)
1 | O=C1Cc2c(-c3ccccc3)cc(-c3cccc(Cl)c3)nc2-c2ccccc2N1 | 1.64 µM (inactive) | 12.1 µM (inactive) | 6.32 µM (inactive) | 1.6 µM (inactive) | 6.19 µM (inactive) | 2.73 µM (inactive) | 1.73 µM (inactive) | 3.56 µM (inactive) | 3.42 µM | 8 µM (inactive) | 3.14 µM (inactive) | 1.82 µM (inactive) | 1.75 µM (inactive) | 15.7 µM (inactive) | 3.9 µM (inactive) | 5.02 µM (inactive) | 2.29 µM (inactive) | 5.24 µM (inactive) | 2.09 µM (inactive) | 1.26 µM (inactive)
2 | O=c1ccn(CC2(CO)CC(Cc3ccccc3)C2)c(=O)[nH]1 (centres undefined) |  | > 100 µM (inactive) | > 100 µM (inactive) | > 100 µM (inactive) | > 100 µM (inactive) | > 100 µM (inactive) | > 100 µM (inactive) | > 100 µM (inactive) | > 100 µM | > 100 µM (inactive) | > 100 µM (inactive) | > 100 µM (inactive) | > 100 µM (inactive) | > 100 µM (inactive) | > 100 µM (inactive) | > 100 µM (inactive) | > 100 µM (inactive) | > 100 µM (inactive) | > 100 µM (inactive) | > 100 µM (inactive)
3 | CCCCCCCCCCCC1=C(O)C(=O)C=C(O)C1=O [EMBELIN] | 16.3 µM (inactive) | 4.27 µM (inactive) | 6.17 µM (inactive) | 9.2 µM (inactive) | 8.83 µM (inactive) | 3.92 µM (inactive) | 8.15 µM (inactive) | 6.03 µM (inactive) | 5.11 µM | 5.11 µM (inactive) | 5.56 µM (inactive) | 4.36 µM (inactive) | 5.02 µM (inactive) | 3.81 µM (inactive) | 6.67 µM (inactive) | 6.38 µM (inactive) | 7.31 µM (inactive) | 7.05 µM (inactive) | 4.72 µM (inactive) | 4.73 µM (inactive)
4 | C#CC[C@@]12CC(=O)C[C@@H]1CCC1(C2)OCCO1.C#CC[C@]12CC(=O)CC[C@H]1CC(=O)C2 | > 100 µM (inactive) | 60.1 µM (inactive) | 90.8 µM (inactive) | > 100 µM (inactive) | > 100 µM (inactive) | > 100 µM (inactive) | > 100 µM (inactive) | > 100 µM (inactive) | > 100 µM | > 100 µM (inactive) | > 100 µM (inactive) | > 100 µM (inactive) | > 100 µM (inactive) | > 100 µM (inactive) | > 100 µM (inactive) | > 100 µM (inactive) | > 100 µM (inactive) | > 100 µM (inactive) | > 100 µM (inactive) | > 100 µM (inactive)
5 | CSc1nc2c(ncn2C2OCC(O)C(O)C2O)c(=O)n1C (centres undefined) | > 100 µM (inactive) | > 100 µM (inactive) | > 100 µM (inactive) | > 100 µM (inactive) | > 100 µM (inactive) | > 100 µM (inactive) | > 100 µM (inactive) | > 100 µM (inactive) | > 100 µM | > 100 µM (inactive) | > 100 µM (inactive) | > 100 µM (inactive) | > 100 µM (inactive) | > 100 µM (inactive) | > 100 µM (inactive) | > 100 µM (inactive) | > 100 µM (inactive) | > 100 µM (inactive) | > 100 µM (inactive) | > 100 µM (inactive)
6 | Nc1nn(CC(O)CO)c(=O)s1 (centres undefined) | > 100 µM (inactive) | > 100 µM (inactive) | > 100 µM (inactive) | > 100 µM (inactive) | > 100 µM (inactive) | > 100 µM (inactive) | > 100 µM (inactive) | > 100 µM (inactive) | > 100 µM | > 100 µM (inactive) | > 100 µM (inactive) | > 100 µM (inactive) | > 100 µM (inactive) | > 100 µM (inactive) | 7.69 µM (inactive) |  | > 100 µM (inactive) | > 100 µM (inactive) | > 100 µM (inactive) | > 100 µM (inactive)
7 | NC(=O)C1(c2ccccc2)Nc2ccccc2S1 (centres undefined) | > 100 µM (inactive) | > 100 µM (inactive) |  | > 100 µM (inactive) | > 100 µM (inactive) | > 100 µM (inactive) | > 100 µM (inactive) |  | > 100 µM | > 100 µM (inactive) | > 100 µM (inactive) | > 100 µM (inactive) | > 100 µM (inactive) | > 100 µM (inactive) | > 100 µM (inactive) | > 100 µM (inactive) | > 100 µM (inactive) | > 100 µM (inactive) | > 100 µM (inactive) | > 100 µM (inactive)
8 | COc1cc(C2c3cc4c(cc3[C@@H](Nc3ccc(N5CCOCC5)cc3)C3COC(=O)[C@H]23)OCO4)cc(OC)c1O (some centres undefined) | 0.2 µM (active) | 0.136 µM (active) |  | 1.25 µM (inactive) | 1.82 µM (inactive) | 1.07 µM (active) | 1.65 µM (inactive) | 0.296 µM (active) | 0.993 µM | 2.46 µM (inactive) | 1.85 µM (inactive) | 0.0659 µM (active) | 0.214 µM (active) | 0.223 µM (active) | 3.82 µM (inactive) |  | 1.97 µM (inactive) |  | 1.99 µM (inactive) | 0.388 µM (active)
9 | COC(=O)C1=C(O)C(C(=O)OC)[C@]2(O)[C@@H](C(=O)OC)[C@H]1C[C@@H](c1ccccc1)[C@@H]2C(=O)OC (some centres undefined) | 24.3 µM (inactive) | 5.42 µM (inactive) | 10.3 µM (inactive) | 6.98 µM (inactive) | 16 µM (inactive) | 1.96 µM (inactive) | 16.3 µM (inactive) |  | 13.1 µM | 13.9 µM (inactive) | 12.2 µM (inactive) |  | 16.1 µM (inactive) | 9.73 µM (inactive) | 20.9 µM (inactive) | 11.7 µM (inactive) | 17.5 µM (inactive) | 15.2 µM (inactive) | 14.2 µM (inactive) | 15.7 µM (inactive)
10 | CCOC(=O)c1ccc(N[C@@H]2c3cc4c(cc3C(c3cc(OC)c(O)c(OC)c3)[C@H]3C(=O)OCC32)OCO4)cc1 (some centres undefined) | 0.36 µM (active) | 0.0818 µM (active) | 3.57 µM (inactive) | 1.17 µM (inactive) | 1.56 µM (inactive) | 0.771 µM (active) | 1.94 µM (inactive) |  | 0.379 µM | 2.63 µM (inactive) | 0.769 µM (active) | 0.0413 µM (active) | 0.249 µM (active) | 0.145 µM (active) | 2.55 µM (inactive) | 1.5 µM (inactive) | 1.77 µM (inactive) | 0.339 µM (active) | 1.22 µM (inactive) | 0.396 µM (active)
11 | COc1cc(CCCl)c(CC2=NCCc3cc(OC)c(OC)cc32)cc1OC | > 100 µM (inactive) | 45.7 µM (inactive) | > 100 µM (inactive) | 24.4 µM (inactive) | > 100 µM (inactive) | 97.3 µM (inactive) | 32.5 µM (inactive) | 19.8 µM (inactive) |  | > 100 µM (inactive) | 69.3 µM (inactive) | > 100 µM (inactive) | > 100 µM (inactive) | 39.4 µM (inactive) | > 100 µM (inactive) | 71.1 µM (inactive) | 88.9 µM (inactive) | > 100 µM (inactive) | 61 µM (inactive) | 80.9 µM (inactive)
